Measurements reported in article PMC3280264 (PLoS ONE, 2012).
Marks after values point to notes of the source that are not given here.

Tests used:
ZF rats = assay: 3-week treatment of ZF rats (body weight, UGE, calorimetry); format: in vivo; details: ZF rat, 3 mg/kg, 3 weeks
Source text: (§1) Four rodent models were used in these experiments: (1) male C57BL/6J mice fed with a high-fat diet (D-12492 with 60 kcal% fat, Research Diets, Inc, New Jersey, USA) (diet-induced obese, insulin resistantmice [DIO]); (2) male C57BL/ksj-db/db hyperglycemic mice; (3) male Zucker fatty (ZF) obese, insulin resistant rats; and (4) male ZDF obese, hyperglycemic rats. All animals were housed according to standard procedures following a protocol approved by the IACUC in Drug Discovery at Johnson & Johnson Pharmaceutical Research & Development, LLC.
Body weight, food intake, and BG levels were monitored weekly. UGE and indirect calorimetry were conducted in the fourth week of treatment during the compound treatment. […] Body weight, food intake, and BG were measured weekly during the 19-day treatment period. UGE, body fat, and indirect calorimetric studies were conducted at the end of this study.

ZDF rats = assay: 4-week treatment of ZDF rats (glycemic control, OGTT); format: in vivo, rat; details: 4 weeks; for OGTT Ratio of insulin AUC/glucose AUC / Insulin / HbA1c / OGTT Plasma insulin (AUC0–120 min) / Fed plasma glucose / OGTT Blood glucose (AUC0–120 min): ZDF rats; for OGTT Ratio of insulin AUC/glucose AUC: vehicle 0.003±0.000; for Insulin: vehicle 5.2±0.4; for HbA1c: vehicle 11.5±0.3; for OGTT Plasma insulin (AUC0–120 min): vehicle 221±13; for Fed plasma glucose: vehicle 598.2±18.0; for OGTT Blood glucose (AUC0–120 min): vehicle 70,704±1289
Source text: as §1
BG levels were monitored at 0, 0.5, 1, 3, 6, and 24 hours after dosing. […] BG levels were monitored weekly, and HbA1c, plasma glucose, and insulin levels were determined at the end of the 4-week treatment. An oral glucose tolerance test (OGTT) ([…] of body weight, given by gavage) was conducted in ZDF rats after 4 weeks of treatment. Blood was sampled at 0, 30, 60, and 120 minutes after glucose challenge from the tail vein for measurement of BG levels using a glucometer (One Touch Ultra, LifeScan, Milpitas, California, USA) and plasma insulin using ELISA method (ALPCO, Salem, New Hampshire, USA).

Human SGLT3 = molecular target: T1, Human SGLT3 (Homo sapiens, UniProt Q9NY91); assay: Two-electrode voltage clamp recording of oocytes expressing human SGLT3 (DNJ-induced currents); format: cell-based
T1 construct: expressed in transfected cells; host or cells: oocytes (from Nasco), injected with mRNA
T1 sequence (Q9NY91 1-659): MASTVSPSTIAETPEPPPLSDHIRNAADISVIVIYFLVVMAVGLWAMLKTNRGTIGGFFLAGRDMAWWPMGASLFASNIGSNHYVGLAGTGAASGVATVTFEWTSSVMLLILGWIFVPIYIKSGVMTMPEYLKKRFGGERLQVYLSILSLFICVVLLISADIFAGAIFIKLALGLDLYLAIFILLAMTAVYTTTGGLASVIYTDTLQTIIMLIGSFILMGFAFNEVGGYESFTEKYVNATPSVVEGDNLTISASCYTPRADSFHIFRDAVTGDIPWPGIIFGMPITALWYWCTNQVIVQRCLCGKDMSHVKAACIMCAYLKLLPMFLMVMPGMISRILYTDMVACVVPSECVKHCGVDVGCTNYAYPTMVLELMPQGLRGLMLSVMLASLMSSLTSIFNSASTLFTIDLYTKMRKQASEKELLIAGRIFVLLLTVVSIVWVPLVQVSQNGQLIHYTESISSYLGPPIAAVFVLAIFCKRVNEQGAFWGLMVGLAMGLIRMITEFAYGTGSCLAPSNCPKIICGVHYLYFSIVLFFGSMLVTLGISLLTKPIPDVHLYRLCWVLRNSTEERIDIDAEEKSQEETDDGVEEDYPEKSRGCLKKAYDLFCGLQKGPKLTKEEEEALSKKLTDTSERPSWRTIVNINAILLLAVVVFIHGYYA
Procedure: Oocytes were obtained from Nasco (Fort Atkinson, Wisconsin, USA). Stage V–VI oocytes were injected with 50 nl of either human SGLT3 mRNA (at 1 ng/nl) or distilled water (control) and incubated at 18°C in a calcium-free solution (92 mM NaCl, 2 mM KCl, 1 mM MgCl2, 5 mM HEPES, 0.05 mg/ml gentamicin at pH 7.5) for 4–6 days before recording. The extracellular recording solution contained 92 mM NaCl, 2 mM KCl, 1.8 mM CaCl2, 1 mM MgCl2, and 5 mM HEPES at pH 7.5. Injected oocytes were impaled with 2 microelectrodes filled with 3 M KCl (resistance of ∼0.5–3 MΩ) and voltage clamped to −120 mV, at which continuous recordings were made (filtered at 5 kHz and sampled at 625 Hz). To establish the baseline in the absence of agonist, oocytes were first perfused for 85 seconds with a control buffer (92 mM NaCl, 2 mM KCl, 1.8 mM CaCl2, 1 mM MgCl2, 5 mM HEPES at pH 7.5). […] Finally, phlorizin (3 mM) was applied in the presence of 50 µM DNJ for 160 seconds. All experiments were performed at 22°C. Currents in the presence of 50 µM DNJ were subtracted from leak currents (currents in control buffer alone) to obtain DNJ-induced currents (IDNJ). Effects of compounds were calculated as: % Inhibition = 100×(IDNJ−Icmpd)/IDNJ, where Icmpd is the DNJ-induced and leak-subtracted current in the presence of a compound or DMSO. Due to lack of effect at the highest dose tested, a dose-response relationship was not examined.

Cc1ccc([C@@H]2O[C@H](CO)[C@@H](O)[C@H](O)[C@H]2O)cc1Cc1ccc(-c2ccc(F)cc2)s1 [canagliflozin, Canagliflozin] was tested, and the “Feeding efficiency index (body weight gain/food intake)” value (ZF rats; vehicle 0.30±0.01) was 0.25±0.01, the RER (ZF rats; vehicle 1.10±0.01) was 1.06±0.01 ^b and the UGE (ZF rats; vehicle 1.8±1.1) was 29.10±3.5 ^b mg/4 h. The Epididymal fat weight (ZF rats; vehicle 10.8±0.3) was 9.5±0.3 ^b g, the Liver weight (ZF rats; vehicle 28.5±0.8) was 25.0±1.4 ^b g and the “Fed BG” value (ZF rats; vehicle 149.6±22.9) was 118.9±4.3 ^b mg/dl. For the same molecule, the Body weight (ZF rats; vehicle 437.9±11.5) was 408.1±7.7 ^b g, the Total food intake (ZF rats; vehicle 645.3±21.2) was 647.9 ± 18.9 g and the “Oxygen consumption (VO2)” value (ZF rats; vehicle 1560±28) was 1582 ± 33 mL/kg/h. The “OGTT Ratio of insulin AUC/glucose AUC” value (ZDF rats; 3 mg/kg) was 0.013±0.002 ^a (ng/ml•min)/mg/dl•min), the Insulin (ZDF rats; 3 mg/kg) was 7.9±0.1 ^a ng/ml and the HbA1c (ZDF rats; 3 mg/kg) was 7.1±0.3 ^a %. The “OGTT Plasma insulin (AUC0–120 min)” value (ZDF rats; 3 mg/kg) was 342±27 ^a ng/ml•min, the Fed plasma glucose (ZDF rats; 3 mg/kg) was 248.0±13.5 ^a mg/dl and the “OGTT Blood glucose (AUC0–120 min)” value (ZDF rats; 3 mg/kg) was 27,883±1806 ^a mg/dl•min. The “OGTT Ratio of insulin AUC/glucose AUC” value (ZDF rats; 10 mg/kg) was 0.017±0.002 ^a (ng/ml•min)/mg/dl•min), the Insulin (ZDF rats; 10 mg/kg) was 7.9±0.1 ^a ng/ml and the HbA1c (ZDF rats; 10 mg/kg) was 5.6±0.3 ^a %. The “OGTT Plasma insulin (AUC0–120 min)” value (ZDF rats; 10 mg/kg) was 403±33 ^a ng/ml•min, the Fed plasma glucose (ZDF rats; 10 mg/kg) was 182.0±7.1 ^a mg/dl and the “OGTT Blood glucose (AUC0–120 min)” value (ZDF rats; 10 mg/kg) was 23,989±1881 ^a mg/dl•min. The “OGTT Ratio of insulin AUC/glucose AUC” value (ZDF rats; 30 mg/kg) was 0.018±0.002 ^a (ng/ml•min)/mg/dl•min), the Insulin (ZDF rats; 30 mg/kg) was 7.8±0.1 ^a ng/ml and the HbA1c (ZDF rats; 30 mg/kg) was 5.5±0.3 ^a %. For the same molecule, the “OGTT Plasma insulin (AUC0–120 min)” value (ZDF rats; 30 mg/kg) was 288 ± 34 ng·min/mL, the Fed plasma glucose (ZDF rats; 30 mg/kg) was 199.9±14.7 ^a mg/dl and the “OGTT Blood glucose (AUC0–120 min)” value (ZDF rats; 30 mg/kg) was 16,549±822 ^a mg/dl•min. For the same molecule, the “increase in the insulin/glucose ratio following an OGTT, relative to vehicle-treated animals” value (ZDF rats; ZDF rats, 3, 10 or 30 mg/kg) was 4-to-6 fold, the inhibition at 10 µM (Human SGLT3; 10 µM, SGLT3-injected oocytes, 50 µM DNJ, n = 9, DMSO 15.6±3.1%, difference not statistically significant) was 23.4 ± 4.3% and the “effect on currents in sham-injected oocytes” value (Human SGLT3; 10 µM, sham (water)-injected oocytes, in the presence of 50 µM DNJ) was “did not affect currents”. For the same molecule, the “effect on DNJ-induced currents” value (Human SGLT3; oocytes expressing human SGLT3, column head IC50, nM) was “No inhibitory effect”.
